Results from article PMC2134300 (The Journal of Cell Biology, 1997).
Residues, ends and D or L forms follow the SMILES beside them. *: point of attachment. Cbz = O=C(OCc1ccccc1)*; CH2Cl = ClC*; CH2F = FC*

Each compound was assayed against T1, T. cruzi oligopeptidase B (rPEP, recombinant 120-kD peptidase) (Trypanosoma cruzi, UniProt Q94795) (assay: fluorimetric inhibition of Z-Phe-Arg-AMC hydrolysis).
T1 sequence (Q94795 1-714): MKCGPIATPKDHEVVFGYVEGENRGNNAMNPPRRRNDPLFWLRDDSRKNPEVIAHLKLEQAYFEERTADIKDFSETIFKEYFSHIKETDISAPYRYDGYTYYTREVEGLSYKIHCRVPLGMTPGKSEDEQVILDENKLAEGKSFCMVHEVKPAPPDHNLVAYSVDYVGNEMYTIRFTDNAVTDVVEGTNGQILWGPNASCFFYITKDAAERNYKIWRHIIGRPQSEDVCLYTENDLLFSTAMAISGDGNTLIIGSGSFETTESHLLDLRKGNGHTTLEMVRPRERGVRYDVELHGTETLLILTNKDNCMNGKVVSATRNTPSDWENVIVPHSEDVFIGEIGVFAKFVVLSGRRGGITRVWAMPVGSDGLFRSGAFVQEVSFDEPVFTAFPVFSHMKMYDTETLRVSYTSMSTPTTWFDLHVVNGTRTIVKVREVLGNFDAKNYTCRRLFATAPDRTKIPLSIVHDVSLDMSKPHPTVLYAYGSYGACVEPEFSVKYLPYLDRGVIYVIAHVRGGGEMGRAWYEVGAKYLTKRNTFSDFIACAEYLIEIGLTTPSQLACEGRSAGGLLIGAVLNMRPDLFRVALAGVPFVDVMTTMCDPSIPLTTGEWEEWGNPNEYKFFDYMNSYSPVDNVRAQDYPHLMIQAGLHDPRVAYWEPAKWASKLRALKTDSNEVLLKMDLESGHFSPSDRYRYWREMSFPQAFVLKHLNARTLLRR
Format: biochemical

SMILES	IC50 [nM]
Cc1ccc(S(=O)(=O)N[C@@H](CCCCN)C(=O)CCl)cc1 [N-α-p-tosyl-l-lysine-chloromethyl ketone]	600
N=C(N)NCCC[C@H](NC(=O)[C@H](Cc1ccccc1)NC(=O)OCc1ccccc1)C(=O)CF [Z-Phe-Arg-fluoromethylketone] (Cbz-Phe-Arg-CH2F)	250
CC(=O)N[C@@H](CCCNC(=N)N)C(=O)N[C@@H](CCCNC(=N)N)C(=O)CCl [acetylArg-Arg-chloromethylketone] (Ac-Arg-Arg-CH2Cl)	200
O=C(O)c1cc[c]([Hg][Cl])cc1 [p-chloromercuribenzoic acid]	330
